# Target: Cdc7/ASK (Homo sapiens, UniProt O00311)
# Test: Cdc7 Biochemical Assay Method 1: 384 well ELISA, whole protein substrate MCM2, antibody against Phospho MCM2 (S53)
# Set-up: purchased
# Conditions: 2 μM ATP, read-out: Biochemical Method 1 (pIC50) (converted)
# Experimental: This protocol describes a method for assaying Cdc7/ASK for activity. The assay is a 384 well ELISA assay, utilising a whole protein substrate (MCM2) and an antibody against Phospho MCM2 (S53). This site is thought to be specific to Cdc7/ASK phosphorylation and the assay has been validated using knockout mutants. Reagents • TBS: 25 mM Tris pH 7.2, 150 mM NaCl. (Dilute 10× stock by 1:10). • Wash Buffer: TBS+0.05% Tween 20. (Add 100 mL 1 M Tris pH 7.2, 120 mL 5 M NaCl and 2 mL 100% Tween 20 per 4 L). • Kinase Reaction Buffer: 50 mM Tris-HCl pH 8.5, 10 mM MgCl2, 1 mM DTT. (Dilute 10× stock by 1:10 and add 100 μL 1M DTT per 100 mL prior to assay). • Diethanolamine Buffer: 1 M diethanolamine pH 9.8, 0.5 mM MgCl2. • Stop Solution: 1 M NaOH. • MCM2 was expressed and purified in-house and used in the assay at a final assay concentration of 436 ng/well. • Cdc7/ASK is purchased from commercial suppliers and used in the assay at a final assay concentration of 37.97 ng/well or 20.63 nM. • ATP used as a final assay concentration of 2 μM. • Primary Antibody: Rabbit anti-Phospho MCM2 (S53 Antibody (BL3353)), is purchased from commercial suppliers at 0.2 mg/mL and used at a final assay concentration by diluting 1:800 in TBS. • Secondary Antibody: Anti-Rabbit/AP Antibody is supplied is purchased from commercial suppliers at 1 mg/mL and used at a final assay concentration by diluting 1:2000 in TBS. • Development Reagent: Dissolve one 20 mg PNPP tablet (Sigma, product […], 20 mg per tablet) per 20 mL diethanolamine Buffer (or one 5 mg PNPP tablet per 5 mL diethanolamine buffer). Cover in foil and leave shaking on a roller shaker at room temperature for up to an hour to dissolve. Methods • 1. Add 20 μL 1× working stock of Substrate (MCM2) in TBS to all wells of a clear, 384 well, Nickel-chelate microplate to give a final concentration of […]. Incubate at room temperature for at least 1 hour. Plates can be pre-coated for 1 hour and stored at 4° C. for up to 8 days. • 2. Wash with TBS+0.05% Tween 20 (80 μL×3). • 3. Add 2 μL 10× test compounds, including the positive control, in 40% DMSO/water to 'test' wells. Add 2 μL 40% DMSO/water to 'control' and 'blank' wells. The final DMSO concentration will be 4%. • 4. Add 13 μL CDC7/ASK Kinase (1.5× stock) in Kinase Reaction Buffer to 'test' and 'control' wells to give a final concentration of […]. Add 13 μL Kinase Reaction Buffer to 'blank' wells. • 5. Add 5 μL ATP (4× stock) in Kinase Reaction Buffer to all wells to give a final concentration of 2 μM. • 6. Incubate at room temperature for 90 minutes. • 7. Wash with TBS+0.05% Tween 20 (80 μL×3). • 8. Add 20 μL 1× working solution of Primary Antibody in TBS to all wells. Incubate at room temperature for 30 minutes. • 9. Wash with TBS+0.05% Tween 20 (80 μL×3). • 10. Add 20 μL 1× working solution of Secondary Antibody in TBS to all wells. Incubate at room temperature for 30 minutes. • 11. Wash with TBS+0.05% Tween 20 (80 μL×3). • 12. Add 20 μL 1× Development Reagent to all wells. • 13. Incubate at room temperature for 2 hours. Stop the reaction by adding 20 μL Stop Solution to all wells and record Absorbance on a Pherastar plate reader. Percentage inhibition values were calculated from absorbance values, using the no compound (DMSO) and no enzyme control values as 0% and 100% inhibition, respectively. IC50 determination was performed with ExcelFit software (IDBS) using curve fit 205. Z' factors were determined for each plate tested and were all above 0.5. Method 2
# Cdc7/ASK, sequence (O00311 whole entry): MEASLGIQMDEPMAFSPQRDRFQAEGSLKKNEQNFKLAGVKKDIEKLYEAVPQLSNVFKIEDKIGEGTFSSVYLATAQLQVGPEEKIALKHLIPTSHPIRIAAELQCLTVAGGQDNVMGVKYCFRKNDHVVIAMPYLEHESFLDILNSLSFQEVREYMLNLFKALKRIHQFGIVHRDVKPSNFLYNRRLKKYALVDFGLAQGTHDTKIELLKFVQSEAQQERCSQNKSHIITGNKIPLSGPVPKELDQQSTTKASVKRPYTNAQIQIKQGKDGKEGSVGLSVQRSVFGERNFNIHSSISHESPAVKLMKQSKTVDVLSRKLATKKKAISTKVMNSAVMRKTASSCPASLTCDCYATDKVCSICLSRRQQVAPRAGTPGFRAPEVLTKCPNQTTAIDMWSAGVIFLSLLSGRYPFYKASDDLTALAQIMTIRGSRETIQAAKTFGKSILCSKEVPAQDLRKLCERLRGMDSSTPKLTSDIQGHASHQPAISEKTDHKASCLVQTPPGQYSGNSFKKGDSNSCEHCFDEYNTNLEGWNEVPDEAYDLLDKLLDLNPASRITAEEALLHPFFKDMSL
# Cdc7/ASK, sequence (Q9UBU7 whole entry partner): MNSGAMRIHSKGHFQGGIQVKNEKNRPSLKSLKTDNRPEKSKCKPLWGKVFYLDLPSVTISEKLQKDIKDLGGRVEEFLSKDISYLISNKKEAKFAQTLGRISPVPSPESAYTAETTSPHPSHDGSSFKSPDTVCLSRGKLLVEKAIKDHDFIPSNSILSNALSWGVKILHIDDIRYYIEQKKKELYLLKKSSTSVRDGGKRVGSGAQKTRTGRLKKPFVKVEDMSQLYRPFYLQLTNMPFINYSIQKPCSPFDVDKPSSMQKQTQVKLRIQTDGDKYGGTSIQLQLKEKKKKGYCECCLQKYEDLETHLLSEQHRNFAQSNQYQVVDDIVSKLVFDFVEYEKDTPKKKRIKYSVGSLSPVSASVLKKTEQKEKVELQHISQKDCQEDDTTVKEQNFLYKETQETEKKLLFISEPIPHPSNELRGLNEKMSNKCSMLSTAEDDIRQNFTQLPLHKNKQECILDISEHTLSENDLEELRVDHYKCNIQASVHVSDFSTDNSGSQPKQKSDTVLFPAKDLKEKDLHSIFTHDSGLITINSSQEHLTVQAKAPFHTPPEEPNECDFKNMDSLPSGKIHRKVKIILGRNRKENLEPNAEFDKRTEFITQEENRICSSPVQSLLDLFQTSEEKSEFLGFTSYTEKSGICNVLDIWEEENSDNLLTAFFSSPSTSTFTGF
row,Structure (SMILES),IC50
1,CN(C)C1CCN(c2nc(-c3ccncc3)[nH]c(=O)c2Cl)C1 (stereo not shown) [Compound 29],1260 nM
2,Cc1cc(C(=O)N2CCC(c3nc(-c4ccncc4)[nH]c(=O)c3Cl)CC2)nn1C [Compound 58],0.912 nM
3,O=c1[nH]c(-c2ccncc2)nc(N2CCCN3CCC[C@@H]3C2)c1Cl [Compound 120],245 nM
4,O=C(c1ccco1)N1CCC(c2nc(-c3ccncc3)[nH]c(=O)c2Cl)CC1 [Compound 51],5.13 nM
5,O=C(c1ccccc1Cl)N1CCC(c2nc(-c3ccncc3)[nH]c(=O)c2Cl)CC1 [Compound 66],14.8 nM
6,O=c1[nH]c(-c2ccncc2)nc(C2CCOC2)c1Cl (stereo not shown) [Compound 12],20 nM
7,O=C(c1ccccn1)N1CCC(c2nc(-c3ccncc3)[nH]c(=O)c2Cl)CC1 [Compound 45],8.71 nM
8,"O=c1[nH]c(-c2ccncc2)nc(C2CCN(S(=O)(=O)c3ccccc3)CC2)c1Cl [Compound 37, 4-[1-(benzenesulfonyl)-4-piperidyl]-5-chloro-2-(4-pyridyl)-1H-pyrimidin-6-one]",30.2 nM
9,O=c1[nH]c(-c2ccnc(Cl)c2)nc(C2CCOCC2)c1Cl [Compound 23],19.1 nM
10,CC(=O)c1ccc(C(=O)N2CCC(c3nc(-c4ccncc4)[nH]c(=O)c3Cl)CC2)cc1 [Compound 60],1.91 nM
11,O=c1[nH]c(-c2ccncc2)nc(C2(F)CCCNC2)c1Cl (stereo not shown) [Compound 19],3.39 nM
12,O=C(c1cscn1)N1CCC(c2nc(-c3ccncc3)[nH]c(=O)c2Cl)CC1 [Compound 57],3.47 nM
13,"O=c1[nH]c(-c2ccncc2)nc(C2CCOCC2)c1I [Compound 4, 5-Iodo-2-(4-pyridyl)-4-tetrahydropyran-4-yl-1H-pyrimidin-6-one]",331 nM
14,"O=C(N1CCC(c2nc(-c3ccncc3)[nH]c(=O)c2Cl)CC1)C(F)(F)F [Compound 38, 5-chloro-2-(4-pyridyl)-4-[1-(2,2,2-trifluoroacetyl)-4-piperidyl]-1H-pyrimidin-6-one]",5.62 nM
15,"CC(C)(C)OC(=O)NCC(=O)N1CCC(c2nc(-c3ccncc3)[nH]c(=O)c2Cl)CC1 [Compound 35, tert-butyl-N-[2-[4-[5-chloro-6-oxo-2-(4-pyridyl)-1H-pyrimidin-4-yl]-1-piperidyl]-2-oxo-ethyl]carbamate]",22.9 nM
16,CCOC1CCN(c2nc(-c3ccncc3)[nH]c(=O)c2Cl)CC1 [Compound 27],21.4 nM
17,O=C(Cc1c[nH]cn1)N1CCC(c2nc(-c3ccncc3)[nH]c(=O)c2Cl)CC1 [Compound 53],5.75 nM
18,Cn1cnc(C(=O)N2CCC(c3nc(-c4ccncc4)[nH]c(=O)c3Cl)CC2)c1 [Compound 55],2.09 nM
19,O=c1[nH]c(-c2ccnc(C(F)(F)F)c2)nc(C2CCOCC2)c1Cl [Compound 24],1020 nM
20,O=C(c1cn[nH]c1)N1CCC(c2nc(-c3ccncc3)[nH]c(=O)c2Cl)CC1 [Compound 68],2.69 nM
21,Cc1ncsc1C(=O)N1CCC(c2nc(-c3ccncc3)[nH]c(=O)c2Cl)CC1 [Compound 67],1.55 nM
22,O=C(c1ccccc1)N1CCC(c2nc(-c3ccncc3)[nH]c(=O)c2Cl)CC1 [Compound 41],6.92 nM
23,C[C@@H](NC(=O)OC(C)(C)C)C(=O)N1CCC(c2nc(-c3ccncc3)[nH]c(=O)c2Cl)CC1 [Compound 64],3.98 nM
24,"CC(C)C(=O)N1CCC(c2nc(-c3ccncc3)[nH]c(=O)c2Cl)CC1 [Compound 34, 5-chloro-4-[1-(2-methylpropanoyl)-4-piperidyl]-2-(4-pyridyl)-1H-pyrimidin-6-one]",13.2 nM
25,O=c1[nH]c(-c2ccncc2)nc(C2CCCCO2)c1Cl (stereo not shown) [Compound 15],832 nM
26,CC(=O)Nc1ccc(C(=O)N2CCC(c3nc(-c4ccncc4)[nH]c(=O)c3Cl)CC2)cc1 [Compound 62],12 nM
27,CC1(c2nc(-c3ccnc(F)c3)[nH]c(=O)c2Cl)CCOCC1 [Compound 10],3.02 nM
28,O=c1[nH]c(-c2ccncc2)nc(C2CCCNC2)c1Cl (stereo not shown) [Compound 8],3.63 nM

# Further lines, results first:
row,IC50,Structure (SMILES)
1,661 nM,CN(C)C(=O)CN1CCN(c2nc(-c3ccncc3)[nH]c(=O)c2Cl)CC1 [Compound 110]
2,977 nM,CC(C)(C)N1CCN(c2nc(-c3ccncc3)[nH]c(=O)c2Cl)CC1 [Compound 155]
3,6.92 nM,Cc1cccc(C(=O)N2CCC(c3nc(-c4ccncc4)[nH]c(=O)c3Cl)CC2)c1 [Compound 72]
4,166 nM,"O=c1[nH]c(-c2ccncc2)nc(C2=CCOCC2)c1Cl [Compound 404, 5-chloro-4-(3,6-dihydro-2H-pyran-4-yl)-2-(4-pyridyl)-1H-pyrimidin-6-one]"
5,5.13 nM,CS(=O)(=O)Cc1ccc(C(=O)N2CCC(c3nc(-c4ccncc4)[nH]c(=O)c3Cl)CC2)cc1 [Compound 73]
6,85.1 nM,C[C@@H]1CN[C@@H](C)CN1c1nc(-c2ccncc2)[nH]c(=O)c1Cl [Compound 173]
7,23.4 nM,COc1cccc(C2CN(c3nc(-c4ccncc4)[nH]c(=O)c3Cl)CCN2)c1 (stereo not shown) [Compound 179]
8,126 nM,O=c1[nH]c(-c2ccncc2)nc(N2CCN[C@H](Cc3ccccc3)C2)c1Cl [Compound 165]
9,10.2 nM,CN1CCC(c2nc(-c3ccncc3)[nH]c(=O)c2Cl)CC1 [Compound 79]
10,15.8 nM,O=C(C1CC1(F)F)N1CCC(c2nc(-c3ccncc3)[nH]c(=O)c2Cl)CC1 (stereo not shown) [Compound 70]
11,33.9 nM,N#CCN1CCN(c2nc(-c3ccncc3)[nH]c(=O)c2Cl)CC1 [Compound 148]
12,12.6 nM,C[C@H]1CN(c2nc(-c3ccncc3)[nH]c(=O)c2Cl)[C@@H](C)CN1 [Compound 172]
13,85.1 nM,CC(C)(C)OC(=O)NCC1CN(c2nc(-c3ccncc3)[nH]c(=O)c2Cl)CCO1 (stereo not shown) [Compound 98]
14,229 nM,O=c1[nH]c(-c2ccncc2)nc(N2CCCNCC2)c1Cl [Compound 115]
15,3.55 nM,O=CN1CCCN(c2nc(-c3ccncc3)[nH]c(=O)c2Cl)CC1 [Compound 119]
16,13.2 nM,O=c1[nH]c(-c2ccncc2)nc(N2CCN3CC(F)(F)C[C@H]3C2)c1Cl [Compound 149]
17,155 nM,COC(=O)[C@@H]1CN(c2nc(-c3ccncc3)[nH]c(=O)c2Cl)CCN1C(=O)OC(C)(C)C [Compound 162]
18,5.25 nM,O=C1CCN(c2nc(-c3ccncc3)[nH]c(=O)c2Cl)CCN1 [Compound 117]
19,100 nM,O=c1[nH]c(-c2ccncc2)nc(N2CCC(O)C2)c1Cl (stereo not shown) [Compound 138]
20,14.5 nM,C[C@H](NC(=O)OC(C)(C)C)C(=O)N1CCC(c2nc(-c3ccncc3)[nH]c(=O)c2Cl)CC1 [Compound 71]
21,25.7 nM,"N#Cc1c(C2CCOCC2)nc(-c2ccncc2)[nH]c1=O [Compound 403, 6-oxo-2-(4-pyridyl)-4-tetrahydropyran-4-yl-1H-pyrimidine-5-carbonitrile]"
22,30.9 nM,O=c1[nH]c(-c2ccncc2)nc(N2CCN[C@H](CCO)C2)c1Cl [Compound 174]
23,138 nM,CC(C)N1CCN(c2nc(-c3ccncc3)[nH]c(=O)c2Cl)CC1 [Compound 86]
24,166 nM,CC(C)CCN1CCN(c2nc(-c3ccncc3)[nH]c(=O)c2Cl)CC1 [Compound 83]
25,83.2 nM,CC1CN(c2nc(-c3ccncc3)[nH]c(=O)c2Cl)CC(C)O1 (stereo not shown) [Compound 92]
26,200 nM,CN(C)C(=O)C1CN(c2nc(-c3ccncc3)[nH]c(=O)c2Cl)CCO1 (stereo not shown) [Compound 97]
27,12 nM,NC(=O)C1CCN(c2nc(-c3ccncc3)[nH]c(=O)c2Cl)CC1 [Compound 100]
